From PubChem BioAssay (NCI)
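All cell lines were grown in 96-well plates and treated with compound for 48 hours. GI50 marks 50% less growth. At the TGI there is no net growth.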

Assays:
Assay in all cases: NCI tumour cell line growth inhibition, 48 h
DLD-1 colon = test system: DLD-1 colon
KM20L2 colon = test system: KM20L2 colon
P388 leukemia = test system: P388 leukemia
P388/ADR leukemia = test system: P388/ADR leukemia
SN12K1 renal = test system: SN12K1 renal
SNB-78 CNS = test system: SNB-78 CNS
M19-MEL melanoma = test system: M19-MEL melanoma
LXFL 529 NSCLC = test system: LXFL 529 NSCLC

Row | Compound | GI50 (DLD-1 colon) | TGI (DLD-1 colon) | GI50 (KM20L2 colon) | TGI (KM20L2 colon) | GI50 (P388 leukemia) | TGI (P388 leukemia) | GI50 (P388/ADR leukemia) | TGI (P388/ADR leukemia) | GI50 (SN12K1 renal) | TGI (SN12K1 renal) | GI50 (SNB-78 CNS) | TGI (SNB-78 CNS) | TGI (M19-MEL melanoma) | TGI (LXFL 529 NSCLC)
1 | C=C(C#N)C(=O)OCC(CC)CC.C=C(C#N)C(=O)OCC(CC)CC.CS(C)=O.CS(C)=O.Nc1c(N=Nc2ccc(-c3ccc(N=Nc4cc(S(=O)(=O)[O-])c5ccccc5c4N)cc3)cc2)cc(S(=O)(=O)[O-])c2ccccc12.[Pt+2] | 28.2 µM | > 77.8 µM | > 100 µM | > 100 µM | 29.6 µM | > 100 µM | 27.2 µM | > 100 µM | 19.7 µM | 40.1 µM | 38.8 µM | > 95.6 µM |  | 
2 | O=C1C(Cl)N(c2ccccc2Cl)C1c1c[nH]c2ccccc12 (centres undefined) |  |  |  | > 100 µM |  |  |  |  |  |  |  |  | > 100 µM | 
3 | CCN(CC)CCNc1ccc2ncn3c4ccc(O)cc4c(=O)c1c23 |  | 15.1 µM |  | 14.9 µM |  |  |  |  |  |  |  | 17.6 µM | 17.1 µM | 17.6 µM
4 | COc1ccc2nc3cc(Cl)ccc3c(NC(C)CCCN(CCCl)CCCl)c2c1 (centres undefined) |  | 4.1 µM |  | 5.73 µM |  |  |  |  |  |  |  | 7.38 µM | 8.78 µM | 2.5 µM
5 | C=CCNC(=O)C(C)C1CCC2(C)C=CC(=O)C(C)=C2C1O (centres undefined) |  | > 100 µM |  | > 100 µM |  | > 100 µM |  | > 100 µM |  | > 100 µM |  | > 89.1 µM | > 100 µM | 
6 | O=C1c2ccccc2C(=O)c2[nH]cnc21 |  | > 100 µM |  |  |  |  |  |  |  |  |  | > 100 µM | 40.6 µM | 
